The text below walks through data of patent publication EP2562253B1 (priority 2010, dated 2011).

Where two headings read alike, the source gives them in different places.

For assay [1], the system named is wild-type enzyme RBS. In kind it is biochemical, Burkholderia sp. YT strain.
The test system of assay [2] is wild-type enzyme RBS. The assay can be described thus: Reaction inhibition of wild-type enzyme RBS by various compounds. As to conditions: 3-quinuclidinone 5 mM, NADPH 0.25 mM, pH 6.5, 30°C. In kind it is biochemical, Burkholderia sp. YT strain. As to the method:
A cell-free extract of the wild-type enzyme was obtained as in Reference Example 4. The 3-quinuclidinone reduction activity of this cell-free extract was measured, and given as activity without inhibitor. The cell-free extract was added to 100 mM phosphate buffer (pH 6.5) containing the compounds shown in Table 2, 3-quinuclidinone (5 mM) and the coenzyme NADPH (0.25 mM), and reacted for 1 minute at 30°C, and reduction activity of 3-quinuclidinone was calculated from the rate of decrease in absorbancy at 340 nm.
Relative activity was calculated by the following formula, and used as an indicator of reaction inhibition by the various compounds. Relative activity (%) = [enzyme activity in presence of compound]/[enzyme activity without inhibitor] × 100 [formula]

As to `OC(CCCl)c1cccs1` (stereo not drawn) [3-Chloro-1-(2-thienyl)propan-1-ol], the “Remaining activity (%)” value with wild-type enzyme RBS [1] (pH 6.5) is reported as 0%.
With `O=C(CCCl)c1cccs1` [3-Chloro-1-(2-thienyl)propan-1-one], in the assay on wild-type enzyme RBS [1] (pH 6.5), the “Remaining activity (%)” value stood at 0%.
For `Cl.O=C1CN2CCC1CC2` [3-Quinuclidinone hydrochloride], the “Remaining activity (%)” value is listed as 73% in the assay on wild-type enzyme RBS [1] (pH 6.5, 310000 µM) and 44% in the assay on wild-type enzyme RBS [1] (pH 6.5, 620000 µM).
For `CC(C)=O` [Acetone], the “Remaining activity (%)” value with wild-type enzyme RBS [1] (pH 6.5) came to 80%.
With `CC(=O)c1ccccc1` [Acetophenone], the “Remaining activity (%)” value in the assay on wild-type enzyme RBS [1] (pH 6.5) amounted to 81%.
On the same count and under the same terms, with `CC(=O)c1cccs1` [Acetylthiophene] the figure was 72%; with `O=C(CCl)c1ccccc1` [Phenacyl chloride], 0%; with `O=C(CCl)c1cccc(Cl)c1` [m-chlorophenacyl chloride], 0%.
As to Potassium chloride, the “Remaining activity (%)” value in the assay with wild-type enzyme RBS [1] (pH 6.5, 310000 µM) was found to be 46%; with wild-type enzyme RBS [1] (pH 6.5, 620000 µM), 26%. In addition, the “Relative activity (%)” value in the assay with wild-type enzyme RBS [2] (additive 0.31 M, 310000 µM) is 14%; in the assay with wild-type enzyme RBS [2] (additive 0.62 M, 620000 µM), 5%.
The like results for Sodium chloride were, in that order, 46%, 24%, 15% and 3%.
In the same order, the values of Sodium sulfate are 76%, 79%, 31% and 17%.
